Source: patent US12686694B2, “Method of extracting carbonic acid, aliphatic acids, esters and alcohols from an aqueous medium” (EVONIK OPERATIONS GMBH, priority 2019, dated 2026)

Assay: Extraction of hexanol from aqueous solution with trialkylphosphine in alkane or pure trialkylphosphine
Assay type: physicochemical
[1] = hexanol extraction without buffer in aqueous phase, mass ratio 9 to 1
[2] = with ammonium acetate buffer in aqueous phase, mass ratio 9 to 1

CCCCCCCCCCCCCC [none (100% tetradecane), tetradecane]
Equilibrium pH (hexanol extraction without buffer in aqueous phase): 7.01
Aq. Hexanoic acid conc. (after) [1]: 2.40 g/kg
Aq. Hexanoic acid conc. (before) [1]: 3.70 g/kg
Aq. Hexanol conc. (after) [2]: 2.75 g/kg
Org. Hexanol conc. [2]: 12.44 g/kg
Org. Hexanol conc. (without buffer in aqueous phase, mass ratio 9 to 1): 11.65 g/kg
